Laboratory results published in ChEMBL document CHEMBL5385847, “Design, synthesis and biological evaluation of a new class of 7H-pyrrolo[2,3-d]pyrimidine derivatives as Mps1 inhibitors for the treatment of breast cancer” (Eur J Med Chem, 2023).
Active and inactive are the calls of the source. The calls are words filed in the database; no cut-off is given here.

What was measured:
[1] = target: Hepatocyte growth factor receptor (Homo sapiens) (UniProt P08581); assay: Inhibition of human Met at 1 uM by KINOMEscan assay relative to control
[2] = system: A549; assay: Antiproliferative activity against human A549 cells assessed as inhibition of cell viability by MTT assay; format: functional, cell-based
[3] = target: ALK tyrosine kinase receptor (Homo sapiens) (UniProt Q9UM73); assay: Inhibition of human ALK at 0.1 uM by KINOMEscan assay relative to control
[4] = target: Cytoplasmic tyrosine-protein kinase BMX (Homo sapiens) (UniProt P51813); assay: Inhibition of human Bmx at 0.1 uM by KINOMEscan assay relative to control
[5] = system: MCF7; assay: Induction of apoptosis in human MCF7 cells assessed as late apoptotic cells at 0.5 uM incubated for 48 hrs by Annexin V-FITC/PI staining based flow cytometry (reference value: 0.63 %); format: functional
[6] = system: GES1; assay: Antiproliferative activity against human GES1 cells assessed as inhibition of cell viability by MTT assay; format: toxicity, cell-based
[7] = system: MCF7; assay: Induction of apoptosis in human MCF7 cells assessed as increase in cleaved PARP level upto 3 uM incubated for 48 hrs by Western blot analysis; format: functional, cell-based
[8] = system: MCF7; assay: Induction of cell cycle arrest in human MCF7 cells at G2/M phase assessed as decrease in cyclin B1 level incubated for 24 hrs by Western blot analysis; format: functional, cell-based; conditions: dose <= 3.0 µM
[9] = system: MCF7; assay: Antiproliferative activity against human MCF7 cells assessed as inhibition of cell viability incubated for 24 to 72 hrs by MTT assay; format: functional, cell-based; conditions: dose <= 10.0 µM, time 24-72 hrs
[10] = system: MCF7; assay: Induction of cell cycle arrest in human MCF7 cells at G2/M phase assessed as decrease in CDK1 level incubated for 24 hrs by Western blot analysis; format: functional, cell-based; conditions: dose <= 3.0 µM
[11] = system: 4T1-Luc; assay: Induction of DNA damage in mouse 4T1-Luc cells xenografted in BALB/C mouse assessed as increase in gamma-H2AX level at 30 to 60 mg/kg, po qd treated for 15 days by IHC analysis; format: functional, organism-based; conditions: dose 30-60 mg/kg, time 15.0 day
[12] = Toxicity in BALB/C mouse xenografted with mouse 4T1-Luc cells assessed as histological change in spleen at 30 to 60 mg/kg, po qd treated for 15 days by H and E staining based analysis; format: organism-based; conditions: in vivo, 360 h, dose 30-60 mg/kg, time 15 day
[13] = target: Tyrosine-protein kinase JAK2 (Homo sapiens) (UniProt O60674); assay: Inhibition of human JAK2 at 1 uM by KINOMEscan assay relative to control
[14] = system: Tyrosine-protein kinase ABL1 (Homo sapiens), P00519 [T315I]; assay: Inhibition of human Abl T315I mutant at 1 uM by KINOMEscan assay relative to control
[15] = Antitumor activity against mouse 4T1-Luc cells xenografted in BALB/C mouse assessed as reduction in mean tumor weight at 60 mg/kg, po qd treated for 15 days (reference value: 3.56 g); format: functional; conditions: time 15 day
[16] = Toxicity in BALB/C mouse xenografted with mouse 4T1-Luc cells assessed as body weight change at 30 to 60 mg/kg, po qd treated for 15 days; format: organism-based; conditions: in vivo, 360 h, dose 30-60 mg/kg, time 15 day
[17] = target: T1, Dual specificity protein kinase TTK (Homo sapiens) (UniProt P33981); assay: Inhibition of human Mps1 at 1 uM by KINOMEscan assay relative to control
T1 sequence (whole entry): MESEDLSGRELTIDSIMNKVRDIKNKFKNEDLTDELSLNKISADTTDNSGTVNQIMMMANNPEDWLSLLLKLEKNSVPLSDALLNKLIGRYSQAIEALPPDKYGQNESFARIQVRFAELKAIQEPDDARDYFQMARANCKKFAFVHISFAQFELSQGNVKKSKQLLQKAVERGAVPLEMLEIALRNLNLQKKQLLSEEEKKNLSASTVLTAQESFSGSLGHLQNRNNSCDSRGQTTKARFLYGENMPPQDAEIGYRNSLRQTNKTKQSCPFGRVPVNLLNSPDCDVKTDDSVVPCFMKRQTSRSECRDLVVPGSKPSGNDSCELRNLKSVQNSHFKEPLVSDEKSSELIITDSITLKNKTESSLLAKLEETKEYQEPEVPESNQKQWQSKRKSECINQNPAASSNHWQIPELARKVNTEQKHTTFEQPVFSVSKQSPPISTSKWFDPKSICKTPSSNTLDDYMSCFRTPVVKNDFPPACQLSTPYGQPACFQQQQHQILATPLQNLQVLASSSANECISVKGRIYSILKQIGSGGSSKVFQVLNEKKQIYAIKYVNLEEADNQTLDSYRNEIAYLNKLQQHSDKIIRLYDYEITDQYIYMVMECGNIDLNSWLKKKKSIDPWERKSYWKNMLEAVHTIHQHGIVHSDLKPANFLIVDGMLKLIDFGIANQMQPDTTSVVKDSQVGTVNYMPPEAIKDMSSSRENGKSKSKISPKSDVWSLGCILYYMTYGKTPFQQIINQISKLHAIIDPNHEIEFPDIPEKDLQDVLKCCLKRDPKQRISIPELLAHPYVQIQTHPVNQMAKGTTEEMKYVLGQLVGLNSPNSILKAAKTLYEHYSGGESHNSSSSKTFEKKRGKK

[18] = system: 4T1; assay: Induction of cell cycle arrest in 4T1 cells at G2/M phase assessed as decrease in CDK1 level incubated for 24 hrs by Western blot analysis; format: functional, cell-based; conditions: Mus musculus, dose <= 3.0 µM
[19] = target: ALK tyrosine kinase receptor (Homo sapiens) (UniProt Q9UM73); assay: Inhibition of human ALK at 1 uM by KINOMEscan assay relative to control
[20] = system: 4T1-Luc; assay: Inhibition of cell proliferation in mouse 4T1-Luc cells xenografted in BALB/C mouse assessed as reduction in Ki-67 positive cells at 30 to 60 mg/kg, po qd treated for 15 days by IHC analysis; format: functional, organism-based; conditions: dose 30-60 mg/kg, time 15.0 day
[21] = system: 4T1; assay: Induction of apoptosis in 4T1 cells assessed as late apoptotic cells at 1 uM incubated for 48 hrs by Annexin V-FITC/PI staining based flow cytometry (reference value: 1.73 %); format: functional, Mus musculus
[22] = system: ES-2; assay: Antiproliferative activity against human ES2 cells assessed as inhibition of cell viability upto 10 uM incubated for 72 hrs by MTT assay; format: functional, cell-based
[23] = system: MCF7; assay: Antiproliferative activity against human MCF7 cells assessed as inhibition of cell viability upto 10 uM by MTT assay; format: functional, cell-based; conditions: time 24-72 hrs, TDE = time-dependent effect
[24] = target: T2, Dual specificity protein kinase TTK (Homo sapiens, UniProt P33981); assay: Inhibition of Mps1 (unknown origin) incubated for 120 mins in presence of substrate/ATP by ADP-Glo assay
T2 sequence (P33981 whole entry): T1 sequence (whole entry)

[25] = Toxicity in BALB/C mouse xenografted with mouse 4T1-Luc cells assessed as histological change in liver at 30 to 60 mg/kg, po qd treated for 15 days by H and E staining based analysis; format: organism-based; conditions: in vivo, 360 h, dose 30-60 mg/kg, time 15 day
[26] = system: Vero; assay: Antiproliferative activity against African green monkey Vero cells assessed as inhibition of cell viability by MTT assay; format: toxicity, cell-based; conditions: chlorocebus sabaeus
[27] = Toxicity in BALB/C mouse xenografted with mouse 4T1-Luc cells assessed as change in blood biochemical parameters at 30 to 60 mg/kg, po qd treated for 15 days; format: organism-based; conditions: in vivo, 360 h, dose 30-60 mg/kg, time 15 day

Sequence of ALK tyrosine kinase receptor (Homo sapiens) (Q9UM73 19-1620 limits assumed): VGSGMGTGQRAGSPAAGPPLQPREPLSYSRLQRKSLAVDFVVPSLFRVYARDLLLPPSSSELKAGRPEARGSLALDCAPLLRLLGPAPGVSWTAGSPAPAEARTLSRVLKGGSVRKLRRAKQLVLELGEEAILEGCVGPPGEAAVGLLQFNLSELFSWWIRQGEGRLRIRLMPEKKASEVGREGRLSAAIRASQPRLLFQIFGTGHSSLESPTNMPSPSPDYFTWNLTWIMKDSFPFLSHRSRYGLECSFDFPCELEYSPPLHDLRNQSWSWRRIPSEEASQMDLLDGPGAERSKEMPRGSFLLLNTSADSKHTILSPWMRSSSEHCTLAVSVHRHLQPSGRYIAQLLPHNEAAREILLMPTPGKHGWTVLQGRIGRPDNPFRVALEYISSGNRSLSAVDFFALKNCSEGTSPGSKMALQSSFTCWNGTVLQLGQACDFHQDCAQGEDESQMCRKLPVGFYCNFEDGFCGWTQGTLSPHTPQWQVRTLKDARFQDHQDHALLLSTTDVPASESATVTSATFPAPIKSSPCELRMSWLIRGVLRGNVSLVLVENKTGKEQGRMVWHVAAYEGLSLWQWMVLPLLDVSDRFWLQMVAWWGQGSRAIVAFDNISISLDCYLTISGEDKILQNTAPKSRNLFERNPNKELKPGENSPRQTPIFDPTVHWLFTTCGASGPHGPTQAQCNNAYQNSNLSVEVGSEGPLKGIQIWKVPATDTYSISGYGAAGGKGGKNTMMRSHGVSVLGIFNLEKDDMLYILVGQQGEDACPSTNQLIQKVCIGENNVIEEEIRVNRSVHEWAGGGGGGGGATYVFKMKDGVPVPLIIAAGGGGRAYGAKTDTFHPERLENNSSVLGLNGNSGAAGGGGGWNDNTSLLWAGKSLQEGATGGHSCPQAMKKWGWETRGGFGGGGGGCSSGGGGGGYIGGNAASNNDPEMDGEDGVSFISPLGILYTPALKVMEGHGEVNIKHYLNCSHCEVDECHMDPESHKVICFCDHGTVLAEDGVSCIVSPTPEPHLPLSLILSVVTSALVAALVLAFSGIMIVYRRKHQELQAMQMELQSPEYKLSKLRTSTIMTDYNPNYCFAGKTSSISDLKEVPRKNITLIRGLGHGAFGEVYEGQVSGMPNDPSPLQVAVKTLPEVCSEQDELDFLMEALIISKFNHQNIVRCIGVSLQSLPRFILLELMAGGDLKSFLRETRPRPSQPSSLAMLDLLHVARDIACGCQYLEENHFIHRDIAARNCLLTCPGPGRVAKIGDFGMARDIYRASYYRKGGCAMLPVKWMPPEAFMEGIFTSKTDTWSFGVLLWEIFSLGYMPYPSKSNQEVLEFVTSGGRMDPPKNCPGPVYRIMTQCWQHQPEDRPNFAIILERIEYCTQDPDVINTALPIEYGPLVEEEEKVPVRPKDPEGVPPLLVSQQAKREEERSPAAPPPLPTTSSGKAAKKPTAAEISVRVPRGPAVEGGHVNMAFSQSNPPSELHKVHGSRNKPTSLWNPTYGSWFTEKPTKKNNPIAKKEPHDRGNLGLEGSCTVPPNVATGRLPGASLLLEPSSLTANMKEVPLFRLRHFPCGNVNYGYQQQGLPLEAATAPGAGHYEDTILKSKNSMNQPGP
Sequence of Cytoplasmic tyrosine-protein kinase BMX (Homo sapiens) (P51813 whole entry): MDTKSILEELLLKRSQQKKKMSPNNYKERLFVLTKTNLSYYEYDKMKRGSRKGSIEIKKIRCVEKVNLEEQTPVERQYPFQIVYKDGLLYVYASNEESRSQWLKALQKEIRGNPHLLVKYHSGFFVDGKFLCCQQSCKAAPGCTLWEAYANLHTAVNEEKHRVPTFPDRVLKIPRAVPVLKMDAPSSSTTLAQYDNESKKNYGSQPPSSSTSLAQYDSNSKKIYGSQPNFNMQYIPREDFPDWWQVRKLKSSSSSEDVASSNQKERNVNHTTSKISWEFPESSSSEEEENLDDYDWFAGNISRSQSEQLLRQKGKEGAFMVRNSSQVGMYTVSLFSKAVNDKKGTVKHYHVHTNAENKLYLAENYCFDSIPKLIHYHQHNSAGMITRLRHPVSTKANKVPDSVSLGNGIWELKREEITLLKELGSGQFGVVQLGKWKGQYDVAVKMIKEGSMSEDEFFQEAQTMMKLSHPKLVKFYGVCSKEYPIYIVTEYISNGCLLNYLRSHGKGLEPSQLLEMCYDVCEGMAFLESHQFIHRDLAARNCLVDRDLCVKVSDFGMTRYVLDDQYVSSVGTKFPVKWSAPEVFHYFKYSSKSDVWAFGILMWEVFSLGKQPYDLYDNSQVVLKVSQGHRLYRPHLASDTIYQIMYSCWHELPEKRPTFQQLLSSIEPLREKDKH
Sequence of Hepatocyte growth factor receptor (Homo sapiens) (P08581 whole entry): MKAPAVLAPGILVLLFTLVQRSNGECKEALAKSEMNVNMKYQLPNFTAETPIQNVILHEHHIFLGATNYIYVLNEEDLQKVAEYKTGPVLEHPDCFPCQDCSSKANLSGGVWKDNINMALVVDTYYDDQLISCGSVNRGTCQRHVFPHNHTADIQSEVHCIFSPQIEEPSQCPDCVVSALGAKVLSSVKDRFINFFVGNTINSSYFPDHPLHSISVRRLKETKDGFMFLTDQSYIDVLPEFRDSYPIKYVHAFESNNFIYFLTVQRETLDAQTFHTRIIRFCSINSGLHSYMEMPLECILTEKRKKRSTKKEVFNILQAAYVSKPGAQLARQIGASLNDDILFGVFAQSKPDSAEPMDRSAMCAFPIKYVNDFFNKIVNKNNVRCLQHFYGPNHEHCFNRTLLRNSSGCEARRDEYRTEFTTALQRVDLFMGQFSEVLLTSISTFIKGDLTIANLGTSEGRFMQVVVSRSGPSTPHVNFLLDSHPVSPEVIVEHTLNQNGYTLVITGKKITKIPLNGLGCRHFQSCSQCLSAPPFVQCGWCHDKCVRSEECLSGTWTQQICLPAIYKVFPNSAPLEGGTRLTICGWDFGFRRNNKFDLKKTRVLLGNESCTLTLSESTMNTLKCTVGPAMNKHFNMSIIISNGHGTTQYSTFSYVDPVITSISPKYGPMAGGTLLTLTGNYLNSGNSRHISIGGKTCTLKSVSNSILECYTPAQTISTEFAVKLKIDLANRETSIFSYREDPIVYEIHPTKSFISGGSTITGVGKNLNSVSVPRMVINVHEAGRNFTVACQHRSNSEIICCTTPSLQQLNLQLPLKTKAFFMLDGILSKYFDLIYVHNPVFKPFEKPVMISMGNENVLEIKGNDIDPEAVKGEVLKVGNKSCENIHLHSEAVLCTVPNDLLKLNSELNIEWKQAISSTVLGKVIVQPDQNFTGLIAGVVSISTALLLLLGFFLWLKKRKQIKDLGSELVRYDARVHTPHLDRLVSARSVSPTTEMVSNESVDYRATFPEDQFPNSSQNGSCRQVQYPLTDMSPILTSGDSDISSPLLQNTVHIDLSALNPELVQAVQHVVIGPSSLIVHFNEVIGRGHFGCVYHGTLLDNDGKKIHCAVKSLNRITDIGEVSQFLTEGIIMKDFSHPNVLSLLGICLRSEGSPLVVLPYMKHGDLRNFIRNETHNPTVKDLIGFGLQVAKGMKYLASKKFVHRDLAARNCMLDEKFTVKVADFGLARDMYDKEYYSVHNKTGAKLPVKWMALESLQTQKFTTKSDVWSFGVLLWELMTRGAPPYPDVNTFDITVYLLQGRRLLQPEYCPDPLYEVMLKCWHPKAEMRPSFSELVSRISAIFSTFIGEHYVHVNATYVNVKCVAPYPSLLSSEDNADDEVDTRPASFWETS
Sequence of Tyrosine-protein kinase JAK2 (Homo sapiens) (O60674 whole entry): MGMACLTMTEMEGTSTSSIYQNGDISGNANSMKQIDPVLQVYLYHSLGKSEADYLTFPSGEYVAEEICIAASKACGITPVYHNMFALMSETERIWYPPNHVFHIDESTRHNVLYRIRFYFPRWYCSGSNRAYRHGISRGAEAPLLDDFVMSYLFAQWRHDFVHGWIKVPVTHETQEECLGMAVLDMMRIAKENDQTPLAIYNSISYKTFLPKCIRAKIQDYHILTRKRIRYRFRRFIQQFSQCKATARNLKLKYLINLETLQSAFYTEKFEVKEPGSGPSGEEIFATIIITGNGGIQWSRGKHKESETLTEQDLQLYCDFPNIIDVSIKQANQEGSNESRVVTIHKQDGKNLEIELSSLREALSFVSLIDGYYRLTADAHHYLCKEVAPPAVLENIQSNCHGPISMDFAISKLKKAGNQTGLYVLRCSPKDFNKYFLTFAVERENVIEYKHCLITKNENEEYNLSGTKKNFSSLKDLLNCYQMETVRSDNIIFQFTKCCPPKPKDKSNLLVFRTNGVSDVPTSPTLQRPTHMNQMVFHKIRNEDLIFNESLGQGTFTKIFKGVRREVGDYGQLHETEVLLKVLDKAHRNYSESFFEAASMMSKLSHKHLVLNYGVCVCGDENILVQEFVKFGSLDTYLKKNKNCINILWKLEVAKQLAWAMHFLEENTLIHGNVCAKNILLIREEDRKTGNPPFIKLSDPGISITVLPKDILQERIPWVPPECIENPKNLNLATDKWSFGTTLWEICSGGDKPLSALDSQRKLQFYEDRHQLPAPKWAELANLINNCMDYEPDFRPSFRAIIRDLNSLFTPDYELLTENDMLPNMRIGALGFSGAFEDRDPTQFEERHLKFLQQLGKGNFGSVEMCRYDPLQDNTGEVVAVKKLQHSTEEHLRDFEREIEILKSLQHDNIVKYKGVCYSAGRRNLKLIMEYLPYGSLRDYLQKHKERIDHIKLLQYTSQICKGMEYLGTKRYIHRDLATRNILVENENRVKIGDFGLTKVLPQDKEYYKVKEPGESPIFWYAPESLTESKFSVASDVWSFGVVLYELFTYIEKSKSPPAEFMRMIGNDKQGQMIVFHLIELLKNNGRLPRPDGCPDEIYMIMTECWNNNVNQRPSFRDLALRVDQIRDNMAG

inhibition [1]: 100% | IC50 [2]: 2030 nM | inhibition [3]: 86% | inhibition [4]: 55% | inhibition [13]: 95% | inhibition [14]: 100% | inhibition [17]: > 90% | inhibition [19]: 91% | IC50 [24]: 29 nM
Structure (SMILES): CN1CCN(c2ccc(Nc3nc(-n4nc(N)c5ccccc54)c4cc[nH]c4n3)cc2)CC1
Activity [5]: 4.51% | Activity [6]: Non-Toxic | Activity [7]: Active | Activity [8]: Dose-Dependent Effect | inhibition [9]: Dose-Dependent Effect | Activity [10]: Dose-Dependent Effect | Activity [11]: Active | Activity [12]: Non-Toxic | Activity [15]: 0.97 g | Activity [16]: Non-Toxic | Activity [18]: Dose-Dependent Effect | inhibition [20]: Active | Activity [21]: 5.58% | inhibition [22]: Active | inhibition [23]: Tde | Activity [25]: Non-Toxic | Activity [26]: Non-Toxic | Activity [27]: Non-Toxic
